Counter-ions that a name gives are not always drawn. Bounds are passed on as bounds.

The target in one data set is T1, σ2 receptor (Rattus norvegicus, UniProt Q5U3Y7).
T1 construct: Rat liver membrane homogenates (~300 μg protein) were diluted with 50 mM Tris–HCl buffer; from tissue; host or cells: rat liver membrane homogenates
T1 sequence (Q5U3Y7 1-176): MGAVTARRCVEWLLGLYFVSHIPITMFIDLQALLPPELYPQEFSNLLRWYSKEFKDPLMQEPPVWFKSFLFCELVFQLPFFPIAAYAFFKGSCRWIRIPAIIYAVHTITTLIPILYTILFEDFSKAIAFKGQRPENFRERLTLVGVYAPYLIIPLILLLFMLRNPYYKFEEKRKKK
Put plainly: Sigma receptor binding, σ2 sites, [3H]DTG competition with σ1 sites masked by (+)-pentazocine, rat liver membrane homogenates. The conditions noted are these: HCl salts tested. As to the method:
(§1) These experiments were performed as described by Jinbin et al. with some modification. Different concentrations of test samples were achieved by diluting stock solutions with a solution containing 50 mM Tris–HCl, 150 mM NaCl and 100 mM EDTA at pH 7.4. Rat liver membrane homogenates (~300 μg protein) were diluted with 50 mM Tris–HCl buffer, pH 8.0 and incubated in a total volume of 150 μL with the radioligand at 25 °C in 96 well plates. The incubation time was 60 min for test compounds and 120 min for [^3H] DTG and [^3H] (+)-pentazocine.
It is worth mentioning that, this was done one at a time. The final concentration of the radioligand in each assay was ~1 nM for [^3H] test compounds and ~5 nM for [^3H] […]

Data set [1] addresses T2, σ1 receptor (Rattus norvegicus, UniProt Q9R0C9).
T2 construct: Rat liver membrane homogenates (~300 μg protein) were diluted with 50 mM Tris–HCl buffer; from tissue; host or cells: rat liver membrane homogenates
Put plainly: Sigma receptor binding, σ1 sites, [3H](+)-pentazocine competition in rat liver membrane homogenates. The conditions noted are these: for Ki: HCl salts tested, rat liver membrane homogenates. Here is the method:
as §1
(§2) It is worth mentioning that, this was done one at a time. The final concentration of the radioligand in each assay was ~1 nM for [^3H] test compounds and ~5 nM for [^3H]
(§3) The reaction was started by adding 0.2 mL of the membrane preparation to the 50 mM Tris–HCl (pH 8.0) buffer containing ^3H-labeled ligand with a final concentration of 5 nM and cold ligand ranging from 0.01 to 0.1 mM in a final volume of 1.0 mL. Incubations were carried out at […] in the binding study with [^3H] […] DTG. Inhibitor concentrations ranging from 0.1 nM to 10 μM were added to acquire the inhibition curves. After the reaction was completed, the samples were harvested, washed three times, and the bound radioactivity counted and analyzed.

Data set [2] has as its system σ1 receptor. The description is as above. The settings on record: ratio of Ki σ2 to Ki σ1. As to the method:
as §1, §2, §3

Data set [3] addresses σ1 receptor. The settings on record: reference ligands in Table 1; cited from earlier work.

T2 sequence (Q9R0C9 whole entry): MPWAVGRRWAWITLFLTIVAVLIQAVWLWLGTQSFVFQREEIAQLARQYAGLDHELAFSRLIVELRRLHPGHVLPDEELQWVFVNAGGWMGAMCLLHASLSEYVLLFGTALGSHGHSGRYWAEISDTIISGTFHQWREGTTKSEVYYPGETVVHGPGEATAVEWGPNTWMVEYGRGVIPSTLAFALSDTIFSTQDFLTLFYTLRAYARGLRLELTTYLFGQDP

With `OC(c1ccc(F)cc1)C1CCN(Cc2ccc(Cl)c(Cl)c2)CC1` (stereo not drawn) [Compound 8b, {1-[(3,4-dichlorophenyl)methyl]piperidin-4-yl}(4-fluorophenyl)methanol], the Ki on σ2 receptor is greater than 854 nM; on σ1 receptor [1], greater than 434 nM.
For `O=C(c1ccc(F)cc1)C1CCN(Cc2ccc(Br)cc2)CC1` [Compound 7e, 1-[(4-bromophenyl)methyl]-4-(4-fluorobenzoyl)piperidine], the Ki is greater than 854 nM at σ2 receptor and 1.4 ± 0.5 nM on σ1 receptor [1]. Besides, the “Selectivity ratio (Ki σ2/σ1)” value in the data set with σ1 receptor [2] is recorded as greater than 610.
As for `Cc1ccc(CN2CCC(C(=O)c3ccc(F)cc3)CC2)cc1` (as salt: HCl) [Compound 7f, 4-(4-fluorobenzoyl)-1-[(4-methylphenyl)methyl]piperidine], the melting point is 108 to 110 °C.
Take `OC(c1ccc(F)cc1)C1CCN(Cc2ccc(Cl)cc2)CC1` (stereo not drawn) [Compound 8c, {1-[(4-chlorophenyl)methyl]piperidin-4-yl}(4-fluorophenyl)methanol]: the Ki was greater than 854 nM on σ2 receptor and 2.49 ± 0.24 nM at σ1 receptor [1]. Also, in the data set on σ1 receptor [2], the “Selectivity ratio (Ki σ2/σ1)” value was greater than 343. Besides, on σ1 receptor [1] (alcohol 8 versus ketone 7), the “increase in σ1 receptor affinity on reduction of the carbonyl compound to the corresponding alcohol” value is “twofold”.
Turning to `O=[N+]([O-])c1ccccc1CN1CCC(C(NCc2cccc(Br)c2)c2ccc(F)cc2)CC1` (stereo not drawn) [Compound 9d, [(3-bromophenyl)methyl][(4-fluorophenyl)({1-[(2-nitrophenyl)methyl]piperidin-4-yl})methyl]amine], the figures for the Ki at σ2 receptor and on σ1 receptor [1] were greater than 854 nM and greater than 434 nM, respectively.
Consider `Cc1ccc(CN2CCC(C(=O)c3ccc(F)cc3)CC2)cc1` [Compound 7f, 4-(4-fluorobenzoyl)-1-[(4-methylphenyl)methyl]piperidine], for which the Ki on σ2 receptor was found to be 151 ± 7.79 nM; on σ1 receptor [1] it was 11.6 ± 0.26 nM. In the data set with σ1 receptor [2], the “Selectivity ratio (Ki σ2/σ1)” value is recorded as 13.
Turning to `OC(c1ccc(F)cc1)C1CCN(Cc2ccc(F)cc2)CC1` (stereo not drawn) [Compound 8a, (4-fluorophenyl)({1-[(4-fluorophenyl)methyl]piperidin-4-yl})methanol], the Ki was greater than 854 nM at σ2 receptor and 1.41 ± 0.22 nM on σ1 receptor [1]. In addition, the “Selectivity ratio (Ki σ2/σ1)” value in the data set on σ1 receptor [2] was greater than 606. Besides, on σ1 receptor [1] (alcohol 8 versus ketone 7), the “increase in σ1 receptor affinity on reduction of the carbonyl compound to the corresponding alcohol” value is listed as “twofold”.
As for `Fc1ccc(C(NCc2cccc(Br)c2)C2CCN(Cc3ccc(Br)cc3)CC2)cc1` (stereo not drawn) [Compound 9e, [(3-bromophenyl)methyl]({1-[(4-bromophenyl)methyl]piperidin-4-yl}(4-fluorophenyl)methyl)amine], the results for the Ki on σ2 receptor and on σ1 receptor [1] were greater than 854 nM and 2.95 ± 0.57 nM, respectively. Also, the “Selectivity ratio (Ki σ2/σ1)” value in the data set with σ1 receptor [2] is greater than 289.
For the compound `O=C(c1ccc(F)cc1)C1CCN(Cc2ccccc2[N+](=O)[O-])CC1` [Compound 7d, 4-(4-fluorobenzoyl)-1-[(2-nitrophenyl)methyl]piperidine], the inhibition constant Ki was greater than 854 nM at σ2 receptor and greater than 434 nM on σ1 receptor [1].
On to `O=[N+]([O-])c1ccccc1CN1CCC(C(O)c2ccc(F)cc2)CC1` (stereo not drawn) [Compound 8d, (4-fluorophenyl)({1-[(2-nitrophenyl)methyl]piperidin-4-yl})methanol], for which the Ki at σ2 receptor was greater than 854 nM; at σ1 receptor [1] it was 527 ± 69 nM. For the same compound, in the data set on σ1 receptor [2], the “Selectivity ratio (Ki σ2/σ1)” value is 2.
With `Cc1ccc(CN2CCC(C(O)c3ccc(F)cc3)CC2)cc1` (stereo not drawn) [Compound 8f, (4-fluorophenyl)({1-[(4-methylphenyl)methyl]piperidin-4-yl})methanol], the figures for the Ki at σ2 receptor and at σ1 receptor [1] were greater than 854 nM and 1.45 ± 0.4 nM, respectively. The “Selectivity ratio (Ki σ2/σ1)” value in the data set with σ1 receptor [2] is reported as greater than 589. Besides, the “increase in σ1 receptor affinity on reduction of the carbonyl compound to the corresponding alcohol” value at σ1 receptor [1] (alcohol 8 versus ketone 7) turned out to be 11 fold.
For the compound `O=C(c1ccc(F)cc1)C1CCN(Cc2ccc(Cl)c(Cl)c2)CC1` [Compound 7b, 1-[(3,4-dichlorophenyl)methyl]-4-(4-fluorobenzoyl)piperidine], the results for the inhibition constant Ki at σ2 receptor and on σ1 receptor [1] were greater than 854 nM and greater than 434 nM, respectively.
Regarding `O=C(c1ccc(F)cc1)C1CCN(Cc2ccc(F)cc2)CC1` [Compound 7a, 4-(4-fluorobenzoyl)-1-[(4-fluorophenyl)methyl]piperidine], the Ki was determined as 222 ± 8 nM at σ2 receptor and 2.96 ± 0.5 nM at σ1 receptor [1]. In the data set on σ1 receptor [2], the “Selectivity ratio (Ki σ2/σ1)” value was found to be 75.
Turning to `OC(c1ccc(F)cc1)C1CCN(Cc2ccc(Br)cc2)CC1` (stereo not drawn) [Compound 8e, {1-[(4-bromophenyl)methyl]piperidin-4-yl}(4-fluorophenyl)methanol], the Ki at σ2 receptor is greater than 854 nM; at σ1 receptor [1], 5.22 ± 0.3 nM. Moreover, the “Selectivity ratio (Ki σ2/σ1)” value in the data set with σ1 receptor [2] was greater than 164. Moreover, the “decrease in σ1 binding affinity on reduction of the carbonyl to the corresponding alcohol” value on σ1 receptor [1] (alcohol 8 versus ketone 7) is “fivefold”.
Regarding `c1ccc(CN2CCC3(CCc4ccccc4S3)CC2)cc1` [Spipethiane, 1′-Benzyl-3,4-dihydrospiro[2H-1-benzothiopyran-2,4′-piperidine]], on σ1 receptor [3], the inhibitory constant (Ki) is 0.5 nM.
Consider `O=C(c1ccc(F)cc1)C1CCN(Cc2ccc(Cl)cc2)CC1` [Compound 7c, 1-[(4-chlorophenyl)methyl]-4-(4-fluorobenzoyl)piperidine], for which the Ki at σ2 receptor was determined as 554 ± 34.2 nM; at σ1 receptor [1], 5.98 ± 0.41 nM. Further, in the data set on σ1 receptor [2], the “Selectivity ratio (Ki σ2/σ1)” value is given as 93.
Compound `O=C(c1ccc(F)cc1)C1CCN(Cc2ccccc2[N+](=O)[O-])CC1` (as salt: HCl) [Compound 7d, 4-(4-fluorobenzoyl)-1-[(2-nitrophenyl)methyl]piperidine] had a melting point of 95 to 97 °C.

As a reminder, the Ki is a dissociation constant, usually derived from enzyme kinetics or from competition with a known ligand. What is called melting point is the temperature, or range, at which the solid turns liquid.

The record behind these values is paper PMC4994268, “4-aroylpiperidines and 4-(α-hydroxyphenyl)piperidines as selective sigma-1 receptor ligands: synthesis, preliminary pharmacological evaluation and computational studies” (Chemistry Central Journal, 2016).
